Here are results for 26 compounds from patent publication US11845724B2, “USP30 inhibitors and uses thereof” (Vincere Biosciences, Inc., priority 2019, dated 2023).

Where two headings read alike, the source gives them in different places.

One test concerns the target USP30 (Homo sapiens (Human), UniProt Q70CQ3). In words: Dundee MALDI-TOF mass spectrometry assay (IC50). It counts as biochemical. The note with it: USP30 25 ng/μl, K48-linked diubiquitin 5.6 μM, avg, read-out: Dundee IC50 μM (avg in vitro MS assay). The protocol: Compounds were tested in a MALDI-TOF assay based on the paper by Ritorto et al. (Ritorto et al. Screening of DUB activity and specificity by MALDI-TOF mass spectrometry. Nat. […] USP30 (25 ng/μl) tested against K48-linked diubiquitin (5.6 μM). USP30 was diluted in a buffer containing 40 mM Tris, 0.01% BSA, 1 mM DTT and K48 in 40 mM Tris, 0.01% BSA. The compounds were pre-incubated with the USP30 for 5 mins at room temp before the K48 dimer addition. The assay mixture was then incubated for 45 mins at room temp. The assay was stopped by the addition of TFA to a final concentration of 2% (v/v). […] Then 250 nl of these solutions were spotted onto an MTP AnchorChip 1,536 TF and this is analysed on the Bruker rapifleX MALDI-TOF.

The target in test [1] is recombinant USP30 (amino acids 57-517 of the human sequence) (Homo sapiens (Human), UniProt Q70CQ3). Briefly: In vitro USP30 biochemical assay (Ubiquitin-Rhodamine).
Where [2] appears, read: USP30 IC50 μM (avg), Ubiquitin-Rhodamine substrate 25 nM, 1.5 nM recombinant USP30.
Setting [3] is: read-out: USP30 IC50 μM (avg), Ubiquitin-Rhodamine substrate 25 nM, 1.5 nM recombinant USP30.

recombinant USP30 (amino acids 57-517 of the human sequence), sequence (Q70CQ3 57-517): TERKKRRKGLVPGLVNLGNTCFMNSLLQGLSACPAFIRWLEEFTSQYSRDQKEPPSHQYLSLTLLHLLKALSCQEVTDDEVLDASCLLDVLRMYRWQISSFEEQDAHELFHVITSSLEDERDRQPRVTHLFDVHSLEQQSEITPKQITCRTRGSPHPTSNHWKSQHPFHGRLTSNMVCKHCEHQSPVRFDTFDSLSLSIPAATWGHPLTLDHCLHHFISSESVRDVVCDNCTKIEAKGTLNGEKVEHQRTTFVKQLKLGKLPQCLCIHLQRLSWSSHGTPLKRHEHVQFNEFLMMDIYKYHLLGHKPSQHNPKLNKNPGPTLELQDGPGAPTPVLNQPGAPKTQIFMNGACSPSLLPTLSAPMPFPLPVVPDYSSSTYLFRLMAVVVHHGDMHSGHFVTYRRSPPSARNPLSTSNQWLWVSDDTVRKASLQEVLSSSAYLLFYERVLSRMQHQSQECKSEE
USP30, sequence (Q70CQ3 whole entry): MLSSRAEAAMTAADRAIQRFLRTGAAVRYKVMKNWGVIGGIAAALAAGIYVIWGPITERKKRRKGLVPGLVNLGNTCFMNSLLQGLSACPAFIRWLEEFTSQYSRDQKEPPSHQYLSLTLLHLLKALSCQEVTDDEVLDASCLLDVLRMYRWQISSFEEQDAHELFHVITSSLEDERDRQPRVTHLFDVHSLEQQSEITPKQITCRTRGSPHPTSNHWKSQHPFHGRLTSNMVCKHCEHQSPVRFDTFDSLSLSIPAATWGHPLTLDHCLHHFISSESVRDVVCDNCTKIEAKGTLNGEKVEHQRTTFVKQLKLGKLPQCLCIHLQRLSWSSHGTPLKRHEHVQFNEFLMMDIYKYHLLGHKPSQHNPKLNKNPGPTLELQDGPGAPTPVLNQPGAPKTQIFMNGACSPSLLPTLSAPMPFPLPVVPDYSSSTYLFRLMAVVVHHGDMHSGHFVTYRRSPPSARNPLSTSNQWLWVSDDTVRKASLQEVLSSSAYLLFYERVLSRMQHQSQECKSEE

Take `C[C@H](NS(=O)(=O)c1ccc(NC(=O)[C@H](Cc2ccccc2)NC(=O)c2ccc(F)cc2)cc1)C(F)(F)F` [Compound I-13, 4-fluoro-N-((S)-1-oxo-3-phenyl-1-(4-(N-((S)-1,1,1-trifluoropropan-2-yl)sulfamoyl)phenylamino)propan-2-yl)benzamide]: the figures for the IC50 (at USP30; in test [1] (setting [2])) were less than 0.05 µM and 0.05 to 1 µM, respectively.
The like results for `O=C(N[C@@H](Cc1ccccc1)C(=O)Nc1ccc(S(=O)(=O)NCCCN2CCOCC2)nc1)c1ccc(F)cc1` [Compound I-112, (S)-4-fluoro-N-(1-(6-(N-(3-morpholinopropyl)sulfamoyl)pyridin-3-ylamino)-1-oxo-3-phenylpropan-2-yl)benzamide] were, in that order, 0.05 to 1 µM and 0.05 to 1 µM.
In the case of `CC(C)(NS(=O)(=O)c1ccc(NC(=O)[C@H](Cc2ccccc2)NC(=O)c2ccc(F)cc2)cc1)C(F)(F)F` [Compound I-25, (S)-4-fluoro-N-(1-oxo-3-phenyl-1-(4-(N-(1,1,1-trifluoro-2-methylpropan-2-yl)sulfamoyl)phenylamino)propan-2-yl)benzamide], the IC50 (on USP30; in test [1] (setting [3])) was less than 0.05 µM each time.
In the case of `CC(C)(C)NS(=O)(=O)c1ccc(NC(=O)[C@H](Cc2ccccc2)N2CCc3ccccc3C2=O)cc1` [Compound I-84, (S)-N-(4-(N-tert-butylsulfamoyl)phenyl)-2-(1-oxo-3,4-dihydroisoquinolin-2(1H)-yl)-3-phenylpropanamide], the IC50 (on USP30; in test [1] (setting [2])) was 0.05 to 1 µM throughout.
Turning to `CC1(NS(=O)(=O)c2ccc(NC(=O)[C@H](Cc3ccccc3)NC(=O)c3ccc(F)cc3)cn2)COC1` [Compound I-115, (S)-4-fluoro-N-(1-(6-(N-(3-methyloxetan-3-yl)sulfamoyl)pyridin-3-ylamino)-1-oxo-3-phenylpropan-2-yl)benzamide], the IC50 was less than 0.05 µM on USP30 and 0.05 to 1 µM in test [1] (setting [2]).
For `CC(C)(C)NS(=O)(=O)c1ccc(NC(=O)[C@H](Cc2ccccc2)NC(=O)c2cccc(F)c2)cc1` [Compound I-88, (S)-N-(1-(4-(N-tert-butylsulfamoyl)phenylamino)-1-oxo-3-phenylpropan-2-yl)-3-fluorobenzamide], in that order: less than 0.05 µM and 0.05 to 1 µM.
For `CCNS(=O)(=O)c1ccc(NC(=O)[C@H](Cc2ccccc2)NC(=O)c2ccc(F)cc2)cc1F` [Compound I-155, (S)-N-(1-(4-(N-ethylsulfamoyl)-3-fluorophenylamino)-1-oxo-3-phenylpropan-2-yl)-4-fluorobenzamide], in that order: less than 0.05 µM and 0.05 to 1 µM.
For `O=C(N[C@@H](Cc1ccccc1)C(=O)Nc1ccc(S(=O)(=O)NC2CCC2)cc1)c1cccnc1` [Compound I-81, (S)-N-(1-(4-(N-cyclobutylsulfamoyl)phenylamino)-1-oxo-3-phenylpropan-2-yl)nicotinamide], the IC50 (on USP30; in test [1] (setting [2])) was 0.05 to 1 µM each time.
In the case of `CCNS(=O)(=O)c1ccc(NC(=O)[C@H](Cc2ccccc2)NC(=O)c2ccc(F)cc2)nc1` [Compound I-117, (S)-N-(1-(5-(N-ethylsulfamoyl)pyridin-2-ylamino)-1-oxo-3-phenylpropan-2-yl)-4-fluorobenzamide], the IC50 at USP30 was less than 0.05 µM; in test [1] (setting [2]) it was 0.05 to 1 µM.
The like results for `COCCNS(=O)(=O)c1ccc(NC(=O)[C@H](Cc2ccccc2)NC(=O)c2ccc(F)cc2)cn1` [Compound I-108, (S)-4-fluoro-N-(1-(6-(N-(2-methoxyethyl)sulfamoyl)pyridin-3-ylamino)-1-oxo-3-phenylpropan-2-yl)benzamide] were, in that order, 0.05 to 1 µM and 0.05 to 1 µM.
For `COCCNS(=O)(=O)c1ccc(NC(=O)[C@H](Cc2ccccc2)NC(=O)c2ccc(F)cc2)nc1` [Compound I-120, (S)-4-fluoro-N-(1-(5-(N-(2-methoxyethyl)sulfamoyl)pyridin-2-ylamino)-1-oxo-3-phenylpropan-2-yl)benzamide], in that order: 0.05 to 1 µM and 0.05 to 1 µM.
The like results for `CCNS(=O)(=O)c1cccc2c(NC(=O)[C@H](Cc3ccccc3)NC(=O)c3ccc(F)cc3)cccc12` [Compound I-125] were, in that order, less than 0.05 µM and 0.05 to 1 µM.
In the case of `O=C(N[C@@H](Cc1ccccc1)C(=O)Nc1ccc(S(=O)(=O)NC2CCCC2)cc1)c1ccccn1` [Compound I-77, (S)-N-(1-(4-(N-cyclopentylsulfamoyl)phenylamino)-1-oxo-3-phenylpropan-2-yl)picolinamide], the IC50 (on USP30; in test [1] (setting [2])) was 0.05 to 1 µM throughout.
Consider `O=C(N[C@@H](Cc1ccccn1)C(=O)Nc1ccc(S(=O)(=O)NC2CCC2)cc1)c1ccc(F)cc1` [Compound I-142, (S)-N-(1-(4-(N-cyclobutylsulfamoyl)phenylamino)-1-oxo-3-(pyridin-2-yl)propan-2-yl)-4-fluorobenzamide], for which the IC50 at USP30 is less than 0.05 µM; in test [1] (setting [2]), 0.05 to 1 µM.
For `O=C(N[C@@H](Cc1ccccc1)C(=O)Nc1ccc(S(=O)(=O)NC2COC2)cc1)c1cccc(F)c1` [Compound I-94, (S)-3-fluoro-N-(1-(4-(N-oxetan-3-ylsulfamoyl)phenylamino)-1-oxo-3-phenylpropan-2-yl)benzamide], in that order: 0.05 to 1 µM and 0.05 to 1 µM.
Take `CCNS(=O)(=O)c1ccc(NC(=O)[C@H](Cc2ccccc2)NC(=O)c2ccc(F)cc2)cc1OC` [Compound I-146, (S)-N-(1-(4-(N-ethylsulfamoyl)-3-methoxyphenylamino)-1-oxo-3-phenylpropan-2-yl)-4-fluorobenzamide]: the IC50 (at USP30; in test [1] (setting [2])) was 0.05 to 1 µM in each case.
With `COc1cc(S(=O)(=O)NC2COC2)ccc1NC(=O)[C@H](Cc1ccccc1)NC(=O)c1ccc(F)cc1` [Compound I-144, (S)-4-fluoro-N-(1-(2-methoxy-4-(N-oxetan-3-ylsulfamoyl)phenylamino)-1-oxo-3-phenylpropan-2-yl)benzamide], the half-inhibitory concentration (IC50) (on USP30; in test [1] (setting [2])) was 0.05 to 1 µM in each case.
With `O=C(N[C@@H](Cc1ccccc1)C(=O)Nc1ccc(S(=O)(=O)NCC(F)(F)F)cc1)c1ccc(F)cc1` [Compound I-23, (S)-4-fluoro-N-(1-oxo-3-phenyl-1-(4-(N-(2,2,2-trifluoroethyl)sulfamoyl)phenylamino)propan-2-yl)benzamide], the IC50 at USP30 is less than 0.05 µM; in test [1] (setting [2]), 0.05 to 1 µM.
With `CCNS(=O)(=O)N1CCCc2c(NC(=O)[C@H](Cc3ccccc3)NC(=O)C3CCCCC3)cccc21` [Compound I-126, (S)-N-(1-(1-(N-ethylsulfamoyl)-1,2,3,4-tetrahydroquinolin-5-ylamino)-1-oxo-3-phenylpropan-2-yl)cyclohexanecarboxamide], the IC50 was 1 to 10 µM at USP30 and more than 10 µM in test [1] (setting [3]).
With `CC(C)(C)C[S+]([O-])c1ccc(NC(=O)[C@H](Cc2ccccc2)NC(=O)c2ccc(F)cc2)cc1` (stereo partly drawn) [Compound I-4, 4-fluoro-N-((2S)-1-(4-(neopentylsulfinyl)phenylamino)-1-oxo-3-phenylpropan-2-yl)benzamide], the IC50 at USP30 is 0.05 to 1 µM; in test [1] (setting [2]), 1 to 10 µM.
For `COc1cc(NC(=O)[C@H](Cc2ccccc2)NC(=O)c2ccc(F)cc2)ccc1S(=O)(=O)NC1COC1` [Compound I-147, (S)-4-fluoro-N-(1-(3-methoxy-4-(N-oxetan-3-ylsulfamoyl)phenylamino)-1-oxo-3-phenylpropan-2-yl)benzamide], in that order: less than 0.05 µM and 0.05 to 1 µM.
As for `COCCNS(=O)(=O)c1ccc(NC(=O)[C@H](Cc2ccccc2)NC(=O)c2ccc(F)cc2)cc1OC` [Compound I-151, (S)-4-fluoro-N-(1-(3-methoxy-4-(N-(2-methoxyethyl)sulfamoyl)phenylamino)-1-oxo-3-phenylpropan-2-yl)benzamide], the IC50 at USP30 is less than 0.05 µM; in test [1] (setting [2]), 0.05 to 1 µM.
Regarding `COCC(C)(C)NS(=O)(=O)c1ccc(NC(=O)[C@H](Cc2ccccc2)NC(=O)c2ccc(F)cc2)cn1` [Compound I-113, (S)-4-fluoro-N-(1-(6-(N-(1-methoxy-2-methylpropan-2-yl)sulfamoyl)pyridin-3-ylamino)-1-oxo-3-phenylpropan-2-yl)benzamide], the IC50 (at USP30; in test [1] (setting [2])) was 0.05 to 1 µM each time.
Turning to `CC(C)(CF)NS(=O)(=O)c1ccc(NC(=O)[C@H](Cc2ccccc2)NC(=O)c2ccc(F)cc2)cc1` [Compound I-10, (S)-4-Fluoro-N-(1-(4-(N-(1-fluoro-2-methylpropan-2-yl)sulfamoyl)phenylamino)-1-oxo-3-phenylpropan-2-yl)benzamide], the IC50 (on USP30; in test [1] (setting [3])) was less than 0.05 µM each time.
Consider `CC(C)(C)OCCNS(=O)(=O)c1ccc(NC(=O)[C@H](Cc2ccccc2)NC(=O)c2ccc(F)cc2)cn1` [Compound I-114, (S)-N-(1-(6-(N-(2-tert-butoxyethyl)sulfamoyl)pyridin-3-ylamino)-1-oxo-3-phenylpropan-2-yl)-4-fluorobenzamide], for which the IC50 (on USP30; in test [1] (setting [2])) was 0.05 to 1 µM each time.
In the case of `CN(C(=O)c1ccc(F)cc1)[C@@H](Cc1cccnc1)C(=O)Nc1ccc(S(=O)(=O)NC2COC2)cc1` [Compound I-89, (S)-4-fluoro-N-methyl-N-(1-(4-(N-oxetan-3-ylsulfamoyl)phenylamino)-1-oxo-3-(pyridin-3-yl)propan-2-yl)benzamide], the IC50 is 1 to 10 µM on USP30 and more than 10 µM in test [1] (setting [3]).
